Experimental data taken from PubChem BioAssay (NCI).
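How tested: cells in 96-well plates exposed to compound for 48 hours at five concentrations. GI50: concentration for 50% inhibition of growth. TGI: concentration producing complete growth inhibition.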

Key:
Assay in all cases: growth of human tumour cells (NCI), 48 h
SN12C renal = test system: SN12C renal
COLO 205 colon = test system: COLO 205 colon
HOP-92 NSCLC = test system: HOP-92 NSCLC
U251 CNS = test system: U251 CNS
HT29 colon = test system: HT29 colon
CAKI-1 renal = test system: CAKI-1 renal
NCI-H522 lung = test system: NCI-H522 lung
DU-145 prostate = test system: DU-145 prostate
RPMI-8226 leukemia = test system: RPMI-8226 leukemia
SF-295 CNS = test system: SF-295 CNS
K-562 leukemia = test system: K-562 leukemia

| SMILES | TGI (SN12C renal) [µM] | TGI (COLO 205 colon) [µM] | TGI (HOP-92 NSCLC) [µM] | TGI (U251 CNS) [µM] | TGI (HT29 colon) [µM] | TGI (CAKI-1 renal) [µM] | TGI (NCI-H522 lung) [µM] | TGI (DU-145 prostate) [µM] | TGI (RPMI-8226 leukemia) [µM] | TGI (SF-295 CNS) [µM] | TGI (K-562 leukemia) [µM] | GI50 (HOP-92 NSCLC) [µM] | GI50 (NCI-H522 lung) [µM] | GI50 (K-562 leukemia) [µM] |
| --- | --- | --- | --- | --- | --- | --- | --- | --- | --- | --- | --- | --- | --- | --- |
| Cn1c(=O)c2c(nc3n(Cc4ccccc4)c(=O)c(NCCBr)cn23)n(C)c1=O | > 100 | > 100 | 36.2 | > 100 | > 100 | 37.6 | 62.8 | > 100 | > 100 | 43.1 | > 100 | – | – | – |
| COC(=O)C(C)(N=Cc1ccccc1)c1ccccc1 (stereo unspecified) | > 100 | > 100 | > 100 | > 100 | > 100 | > 100 | > 100 | > 100 | > 100 | > 100 | > 100 | – | – | – |
| O=C1CSc2nc3ccccc3n2/C=N\N1 | > 100 | > 100 | > 100 | > 100 | > 100 | > 100 | > 100 | > 100 | > 100 | > 100 | > 100 | – | – | – |
| CCOC(=O)c1c(Br)c(-c2ccc(Br)cc2)c(Br)n1C | 84 | 34.3 | 55.7 | 55 | 42.5 | 75.2 | 44.5 | > 100 | 42.3 | 45.6 | 35.1 | 14.3 | 11.2 | 11.3 |
| COC(=O)C1=C(C)NC2(O)C=CC(=O)C3C(=O)N(c4ccccc4)C(=O)C132 (stereo unspecified) | > 100 | > 100 | > 100 | > 100 | 70.3 | > 100 | > 100 | > 100 | > 100 | > 100 | > 100 | – | – | – |
| Cc1cc(CNC(=O)OCc2ccccc2)c(C)c2c1Oc1ccccc1O2 | > 91.8 | > 100 | 26.1 | > 67.3 | > 68.8 | > 87.5 | 90.7 | > 100 | > 100 | > 100 | > 100 | – | – | – |
| C=CC1ON(Cc2ccccc2)CCc2cc(OC)c(OC)cc21 (stereo unspecified) | > 100 | > 100 | > 100 | > 100 | > 100 | > 100 | > 100 | > 100 | > 100 | > 100 | > 100 | – | – | – |
| Cn1ccn2c3nc4ccccc4nc3c(=O)c(C#N)c12 | > 100 | > 100 | > 100 | > 100 | > 100 | > 100 | > 100 | > 100 | > 100 | > 100 | > 100 | – | – | – |
